pEC50: −log10 of the molar value.
Test system: Vaccinia virus
Assay: Antiviral activity against Vaccinia virus Lederle infected in HEL cells assessed as inhibition of viral-induced cytopathogenicity
Assay type: functional, organism-based
Details: Orthopoxvirus vaccinia

| SMILES | pEC50 |
| --- | --- |
| C#C[C@]1(CO)S[C@@H](n2ccc(N)nc2=O)C[C@@H]1O | 5.19 |
| C#C[C@]1(CO)S[C@@H](n2cnc3c(N)ncnc32)C[C@@H]1O | 4.28 |
| C#C[C@]1(CO)S[C@@H](n2cnc3c(=O)[nH]c(N)nc32)C[C@@H]1O | 4.57 |
| Nc1nc2c(ncn2COC(CO)CO)c(=O)[nH]1 [GANCICLOVIR] | 4.00 |
